PubChem BioAssay AID179 (DTP/NCI, 2004)
Where “and” joins values, the source holds several entries; their conditions need not be identical. Equal values may be shown once. Calls of active or inactive are those of the source.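 The calls were made as follows: active = compounds giving half or more protection of infected cells from virus-caused growth loss, again on retest; inactive = the rest.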

Test system: CEM cells HIV-1 protection, formazan growth assay
Assay: NCI AIDS Antiviral Assay
Conditions: for IC50: measured here: growth of uninfected CEM cells
Description: The ability of compounds to protect human CEM cells from HIV-1 infection is measured as a screen for new compounds capable of inhibiting the HIV virus. Five concentrations of drug were tested on uninfected and infected cells and cell growth was measured using a soluble formazan assay. […] Compounds that provided at least 50% protection were retested. Compounds that provided at least 50% protection on retest were listed as moderately active. Compounds that reproducibly provided 100% protection were listed as confirmed active. […] Note that the inability to provide protection could be due to toxicity.

| Compound | EC50 | IC50 | outcome |
| --- | --- | --- | --- |
| CCOC1N(C2CC(N=[N+]=[N-])C(CO)O2)C(=O)NC(=O)C1(C)Br (stereo not given) | 0.00813 µM and 0.00631 µM | 22.4 µM and 17.4 µM | – |
| Cc1cc(S(=O)(=O)N=C2Nc3cccc4cccc(c34)N2)c(S)cc1Cl | 132 µM | 174 µM | – |
| COc1ccc(Cc2nnc(Nc3ccc(Br)cc3)[nH]c2=O)cc1OC | > 200 µM | 33.9 µM | – |
| CCOC(=O)NC(NC(C)CC)(C(F)(F)F)C(F)(F)F (stereo not given) | > 200 µM | > 200 µM | – |
| c1ccc2sc(NCCSSCCNc3nc4ccccc4s3)nc2c1 | > 200 µM | 23.4 µM | – |
| C=CCOP1(OCC=C)=NP(OCC=C)(OCC=C)=NP(OCC=C)(OCC=C)=N1 | > 200 µM | 8.51 µM | – |
| NS(=O)(=O)c1cc2c(cc1C(F)(F)F)NCNS2(=O)=O | > 759 µM | > 759 µM | – |
| CC(=O)Oc1cc(C)cc2ccc(-c3ccc4cc(C)cc(OC(C)=O)c4c3OC(C)=O)c(OC(C)=O)c12 | > 200 µM | 28.8 µM | – |
| CCOC(=O)C1=Nc2ccccc2N=C(C2C(=O)C=C(C)OC2=O)C1 (stereo not given) | > 200 µM | > 200 µM | – |
| Nc1nc(Cl)cc2nsnc12 | > 28.2 µM | > 28.2 µM | – |
| C[C@@H]1CC/C=C(/[Si](C)(C)C)C[C@H](C)O1 | > 1170 µM | > 1170 µM | – |
| CC1(C)C[N+](C)(C)C2(CCCC2)O1 | > 200 µM | > 200 µM | – |
| Cn1c2ccccc2c2c(-c3ccccc3)cc3c(c21)C(=O)C=CC3=O | > 100 µM | 5.5 µM | – |
| Cn1c(=O)c2c(no[n+]2[O-])c2ccccc21 | – | – | inactive |
| CN(C)c1ccc(/C=C(\C#N)c2cccc(Br)c2)cc1 | > 200 µM | 0.0631 µM | – |
| COc1cc(C2C3=C(COC3=O)OC(C)(C)Oc3cc4c(cc32)OCO4)cc(OC)c1O (stereo not given) | > 2 µM | 0.575 µM | – |
| N#C/C(=C/NC(=S)Nc1ccccc1)C(N)=O | > 200 µM | > 200 µM | – |
| O=C(Nc1ccc(S(=O)(=O)Nc2nccs2)cc1)c1cccnc1Nc1cccc(Cl)c1 | – | – | inactive |
| O=c1c2ccccc2c(=O)n2n1C1CCC2C1 | > 1100 µM | > 1100 µM | – |
| COc1ccc(/C=C2\CCc3ccccc3C2=O)cc1 | > 19.5 µM | 12.6 µM | – |
| CCN(CC)c1ccc(Cl)c2c1C(O)(C(C)C)C2(C)C (stereo not given) | > 200 µM | 58.9 µM | – |
| COc1cc(C2=C(C)[C@@H]3CN(CC=C3c3ccc(Cl)cc3)C2)c(S(=O)(=O)O)cc1OC | – | – | inactive |

| Compound | EC50 | IC50 | outcome |
| --- | --- | --- | --- |
| c1ccc2c(c1)CN1CCCC1CN2 (stereo not given) | > 200 µM | > 200 µM | – |
| N=c1n(CC(=O)NC23CC4CC(CC(C4)C2)C3)c2ccccc2n1Cc1ccc(Cl)cc1 | > 53.7 µM | 4.79 µM | – |
| [N-]=[N+]=Nc1ccc2c(c1)Sc1ccccc1N2CCCCN1CCN(Cc2ccc(C(=O)c3ccc(CSCC(N)C(=O)O)cc3)cc2)CC1 (stereo not given) | > 200 µM | 32.4 µM | – |
| COc1ccc(SCc2ccc(C(=O)O)cc2)cc1 | > 26.3 µM | > 26.3 µM | – |
| O=C1CCC2(c3ccc(Cl)cc3)SCCN12 (stereo not given) | > 200 µM | 145 µM | – |
| Cc1cc2c(=O)c(C)n[nH]c2c(C#N)c1C | > 1170 µM | 178 µM | – |
| Cn1c(=O)[nH]c2nccnc2c1=O | > 200 µM | > 200 µM | – |
| CCN(CC)C(=O)c1cc([N+](=O)[O-])c(=O)n2c1[nH]c1ccccc12 | > 200 µM | 151 µM | – |
| Nc1ccccc1/C=C/c1ccnc2ccccc12 | 0.0631 µM | 40.7 µM | – |
| COC(=O)C1=C(C(=O)OC)SC(C(C(=O)OC)=C2SC3=C(CCCC3)S2)S1 | – | – | inactive |
| Cc1cc2c(c3oc(=O)cc(C)c13)[C@@H](OC(=O)C13CCC(C)(C(=O)O1)C3(C)C)[C@@H](OC(=O)C13CCC(C)(C(=O)O1)C3(C)C)C(C)(C)O2 (stereo not given in full) | 0.912 µM | > 200 µM | – |
| Cc1ccccc1/C=C/c1csnn1 | > 129 µM | > 129 µM | – |
| Cc1ccc2c(c1)S(=O)c1cc(C)ccc1S2 | – | 14.5 µM | inactive |
| O=C(CC(C(=O)c1ccsc1)c1ccsc1)c1ccsc1 (stereo not given) | > 200 µM | 22.4 µM | – |
| O=C1OC(c2ccccc2)=N/C1=C\c1c(O)cc(O)cc1O | > 87.1 µM | > 87.1 µM | – |
| O=c1[nH]c(=O)n(C2OC(CO)C(O)C2O)cc1NN=NCc1ccccc1 (stereo not given) | > 182 µM | > 182 µM | – |
| COC1N(C2CC(F)C(CO)O2)C(=O)NC(=O)C1(C)Cl (stereo not given) | 14.5 µM and 25.1 µM | 794 µM | – |
| CC(C)CC1=C(C(=O)c2ccoc2)CC(C)C1 (stereo not given) | > 200 µM | > 200 µM | – |
| Cc1ccc(S(=O)(=O)NN=C2CCCCCCCCCCC2)cc1 | > 200 µM | > 200 µM | – |
| CN1c2c(C(=O)Nc3nccs3)nn(-c3ccccc3)c2-c2ccccc2S1(=O)=O | > 22.9 µM | > 22.9 µM | – |
| CCOC(=O)c1cc(C2(O)CCN(Cc3ccccc3)C2=O)c(-c2cc(C)no2)[nH]1 (stereo not given) | > 200 µM | 38.9 µM | – |
| CCOP(=O)(Cc1cc(C(C)(C)C)c(O)c(C(C)(C)C)c1)OCC | > 100 µM | > 100 µM | – |

| Compound | EC50 | IC50 | outcome |
| --- | --- | --- | --- |
| Cn1c(-c2cccs2)cc(-c2ccsc2)c1-c1ccsc1 | > 200 µM | > 200 µM | – |
| CC1CCC2(C(=O)O)CCC3(C)C(=CCC4C5(C)CCC(O)C(C)(C)C5CCC43C)C2C1C (stereo not given) | > 200 µM | 14.8 µM | – |
| Oc1ccccc1/C=N/N1C(=S)N(c2ccccc2)C(=Nc2ccccc2)C1=Nc1ccccc1 | > 20 µM | 1.29 µM | – |
| Cc1c(Cl)cccc1NC(=O)C(=O)C1C(=O)CC(C)(C)CC1=O | > 741 µM | > 741 µM | – |
| CC(=O)c1cc2c3c(c1)C(=O)CCN3CCC2=O | – | – | inactive |
| O=P1(c2ccccc2)C(c2ccccc2)=CC=C1c1ccccc1 | > 200 µM | 7.41 µM | – |
| COc1ccccc1C1SCC(=O)N1c1ccc(-n2c(-c3ccccc3)nc3ccccc3c2=O)cc1 (stereo not given) | > 200 µM | 135 µM | – |
| C=C(C)CC1(O[Si](C)(C)C)C(=O)C(OCC)=C1OCC (stereo not given) | > 200 µM | > 200 µM | – |
| O=c1c2ccccc2[se]n1-c1ccc(Cl)cc1 | 8.13 µM | 23.4 µM | – |
| COc1ccc2nc3ccccc3c(NCCCCCN(CCCl)CCCl)c2c1 | > 245 µM | 0.282 µM | – |
| O=C1/C(=C/c2cccc3ccccc23)Cc2ccccc21 | > 200 µM | 97.7 µM | – |
| Cc1cc(O)ccc1N=O | > 200 µM | 3.39 µM | – |
| CCc1cccc(C)c1NC(=O)CC1Sc2ccccc2NC1=O (stereo not given) | > 28.8 µM | 17.8 µM | – |
| COc1ccc(N2C(=O)C3c4[nH]c5ccc(OC)cc5c4C4CCC(c5ccccc5)CC4C3C2=O)cc1 (stereo not given) | > 100 µM | 67.6 µM | – |
| CC(C)N1CSC(=S)N(Cc2ccccc2)C1 | > 37.2 µM | 32.4 µM | – |
| COc1ccc(/C(C#N)=C/c2cc(OC)c(OC)c(OC)c2)cc1 | > 200 µM | 5.75 µM | – |
| COc1cc(Nc2cnc3cc(C(F)(F)F)ccc3n2)cc(OC)c1OC | > 50.1 µM | > 50.1 µM | – |
| COc1cc2c(c(OC)c1OC)CCNC2C1=C(O)COC1=O (stereo not given) | – | – | inactive |
| O=c1oc2ccccc2cc1/C=N/N1C(=S)N(c2ccccc2)C(=Nc2ccccc2)C1=Nc1ccccc1 | > 200 µM | > 200 µM | – |
| Cc1cn([C@H]2C[C@](C)(CO)N(C)O2)c(=O)[nH]c1=O | > 200 µM | > 200 µM | – |
| COc1cc2c(cc1O)C1Cc3ccc(OC)c(O)c3C(C2)N1C (stereo not given) | > 200 µM | 85.1 µM | – |
| CCC1=C(C[C@H]2NCCc3cc(OC)c(OC)cc32)C[C@H]2c3cc(OC)c(OC)cc3CCN2C1 | – | – | inactive |

| Compound | EC50 | IC50 | outcome |
| --- | --- | --- | --- |
| Clc1cc2nn(C3CCCCO3)nc2cc1Cl (stereo not given) | > 200 µM | > 200 µM | – |
| CC(=O)Oc1ccc2c(c1)[nH]c1c3ccc(OC(C)=O)cc3oc(=O)c21 | > 200 µM | 11.7 µM | – |
| O=C1Sc2cc3c(cc2C(=O)N2CCCC12)OCO3 (stereo not given) | > 182 µM | 129 µM | – |
| O=C(Sc1sc(=S)sc1SC(=O)c1ccccc1)c1ccccc1 | > 17.8 µM | > 17.8 µM | – |
| CC(C)(C)[Si](C)(C)OC1C(/C=N\O)OC(n2cnc3c(N)ncnc32)C1O[Si](C)(C)C(C)(C)C (stereo not given) | > 200 µM | 3.02 µM | – |
| CC(=O)CCn1c(=S)sc2ccccc21 | > 200 µM | 93.3 µM | – |
| COc1ccc(C(=O)C(C(=O)CC(=O)Nc2cccc(C(F)(F)F)c2)c2ccc(OC)cc2)cc1 (stereo not given) | > 14.8 µM | > 14.8 µM | – |
| O=C(O)COCC(=O)N(CCOCCN(Cc1ccccc1)C(=O)COCC(=O)O)Cc1ccccc1 | > 200 µM | > 200 µM | – |
| CN(C)CCCNC(=O)CNC(=O)c1cc(NC(=O)c2cc(NC(=O)c3cc(NC(=O)CCNC(=O)c4cc(NC(=O)c5cc(NC(=O)c6nccn6C)cn5C)cn4C)cn3C)cn2C)cn1C | – | – | inactive |
| CCCOc1ccc2[nH]cc(C(COC)c3c[nH]c4ccc(OCCC)cc34)c2c1 | > 200 µM | 12.9 µM | – |
| CCC/C=C(/Br)[Si](C)(C)C | > 427 µM | 372 µM | – |
| Cc1ccccc1NC(=O)C(=O)CC(=O)c1ccc([N+](=O)[O-])cc1 | > 8.32 µM | > 8.32 µM | – |
| CC(=O)SC(C[N+](=O)[O-])c1ccc2c(c1)OCO2 (stereo not given) | > 200 µM | 3.98 µM | – |
| O=C1CN2CC(c3ccccc3)OC2c2ccccc2N1 (stereo not given) | > 224 µM | > 224 µM | – |
| Cc1cn(CC(=O)NCCCCO)c(=O)[nH]c1=O | > 200 µM | > 200 µM | – |
| Cc1cc(NC(=O)c2ccc(N=Nc3c(S(=O)(=O)O)cc4cc(NC(=O)c5ccc(N)cc5)ccc4c3O)cc2)ccc1N=Nc1ccc2cc(S(=O)(=O)O)cc(S(=O)(=O)O)c2c1 | – | – | active |
| CC1=CC(C/C(C)=C/COc2ccc3ccc(=O)oc3c2)OC1=O (stereo not given) | > 3.24 µM | > 3.24 µM | – |
| CC1(C)CC(N(C(=O)/C=C/c2ccc([N+](=O)[O-])o2)C2CCCCC2)CC(C)(C)N1 | > 32.4 µM | 17.4 µM | – |
| O=C1OCCOCCOC(=O)c2cccc(n2)C(=O)OCCOCCOC(=O)c2cccc1n2 | > 525 µM | > 525 µM | – |
| COc1cccc(/C=C/c2cnc3ccccc3n2)c1OC | > 200 µM | 151 µM | – |
| CC1(C)N=C(c2ccccc2)C2(c3ccccc3)N1C2(C)C (stereo not given) | > 234 µM | 224 µM | – |
